The structures appear in SMILES notation. pIC50: −log10 of the molar value.

Drawing on patent US12421254B2, “KRAS modulators and uses thereof” (Quanta Therapeutics, Inc., priority 2023, dated 2025), this text covers IC50 for 14 molecules.

Test [1] has as its target GST-tagged KRAS-G12D (2-169) (Homo sapiens, UniProt P01116, G12D). Description: Nucleotide exchange assay (NEA), SOS-mediated, HTRF, KRAS G12D. It is filed as biochemical. As to conditions: Table 4; IC50 extracted at 30 min; 20 nM SOScat; read-out: NEA G12D IC50. The gist of the method:
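SOS1cat-driven loading of fluorescent GTP-DY-647P1 (150 nM) onto GST-KRAS-G12D (2-169, 0.25 nM) read by time-resolved FRET; SOScat 20 nM, compound preincubated with KRAS 1 h at RT. Signal blanked to no-SOS reactions, normalized to DMSO; IC50 fitted from the 30-min read.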

Test [2] deals with GST-tagged KRAS-G12V (2-169) (Homo sapiens, UniProt P01116, G12V). Description: Nucleotide exchange assay (NEA), SOS-mediated, HTRF, KRAS G12V. It is filed as biochemical. The conditions noted are these: Table 4; IC50 extracted at 90 min; 80 nM SOS. The gist of the method: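 Exchange onto fluorescent GTP-DY-647P1 (150 nM final) catalysed by 80 nM SOS1cat was followed by Tb-anti-GST HTRF at RT for up to 90 min, after 1 h compound pre-incubation with 0.25 nM GST-tagged KRAS-G12V (2-169), pH 7.3. DMSO = 0%, no-SOS blank = 100%; 4-parameter IC50 taken at 90 min.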

Test [3] concerns phospho-ERK in SW620 (KRAS-G12V) cells. The experiment in a line: pERK In Cell Western (ICW) assay (Method B), SW620. It is filed as cell-based. The gist of the method:
(§1)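 Per well, infrared pERK immunofluorescence was divided by DRAQ5 nuclear signal following 3 h treatment with a 9-point, ½-log compound series; seeding was 5,000 (AGS) or 10,000 (GP2D, SW620) cells per well. Percent-of-blank data were fitted to a four-parameter model for IC50.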

Test [4] has as its system phospho-ERK in GP2D (KRAS-G12D) cells. The experiment in a line: pERK In Cell Western (ICW) assay (Method B), GP2D. It is filed as cell-based. In short, it runs like this: as §1
Where [5] appears, read: Homo sapiens, SW-620, 3 h, Table 4.

Chain of GST-tagged KRAS-G12V (2-169) (P01116 2-169 isoform P01116-2 G12V): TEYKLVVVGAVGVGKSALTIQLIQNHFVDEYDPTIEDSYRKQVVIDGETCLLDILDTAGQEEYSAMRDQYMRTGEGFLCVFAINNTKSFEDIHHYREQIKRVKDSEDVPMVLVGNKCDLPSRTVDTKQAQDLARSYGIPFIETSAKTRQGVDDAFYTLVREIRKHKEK
Chain of GST-tagged KRAS-G12D (2-169) (P01116 2-169 isoform P01116-2 G12D): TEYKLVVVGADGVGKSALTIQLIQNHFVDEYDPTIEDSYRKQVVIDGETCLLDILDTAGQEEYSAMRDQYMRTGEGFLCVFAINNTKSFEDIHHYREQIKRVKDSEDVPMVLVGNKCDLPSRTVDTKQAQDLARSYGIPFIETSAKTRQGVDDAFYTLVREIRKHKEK

Consider `CC(c1cncnc1N)N(C)c1nc(OC[C@@]23CCCN2C[C@H](F)C3)nc(N2CC3(CCc4sc(N)c(C#N)c43)C2)n1` (stereo partly drawn) [Compound 108, 2-amino-1′-[4-[1-(4-aminopyrimidin-5-yl)ethyl-methyl-amino]-6-[[(2R,8S)-2-fluoro-1,2,3,5,6,7-hexahydropyrrolizin-8-yl]methoxy]-1,3,5-triazin-2-yl]spiro[5,6-dihydrocyclopenta[b]thiophene-4,3′-azetidine]-3-carbonitrile], for which the pIC50 is over 8.00 in test [1]; over 8.00 in test [2]; 7.00 to 8.00 in test [3] (setting [5]); 7.00 to 8.00 in test [4] (GP2d, 3 h, Table 4).

As for `CC(=O)C(O)(O)C(=O)N1[C@@H]2CC[C@H]1CN(c1nc(OC[C@@]34CCCN3C[C@H](F)C4)nc(N3CC4(C3)SCc3sc(N)c(C#N)c34)n1)C2` [Compound 159, 2-amino-1′-[4-[(1R,5S)-8-(2,2-dihydroxy-3-oxo-butanoyl)-3,8-diazabicyclo[3.2.1]octan-3-yl]-6-[[(2R,8S)-2-fluoro-1,2,3,5,6,7-hexahydropyrrolizin-8-yl]methoxy]-1,3,5-triazin-2-yl]spiro[6H-thieno[3,4-b]thiophene-4,3′-azetidine]-3-carbonitrile], the pIC50 was 7.00 to 8.00 in test [1]; 6.00 to 7.00 in test [2]; 4.70 to 6.00 in test [3] (setting [5]); 6.00 to 7.00 in test [4] (GP2d, 3 h, Table 4).

In the case of `CC(c1nccnc1N)N(C)c1nc(OC[C@@]23CCCN2C[C@H](F)C3)nc(N2CC3(C2)SCc2sc(N)c(C#N)c23)n1` (stereo partly drawn) [Compound 134, 2-amino-1′-[4-[1-(3-aminopyrazin-2-yl)ethyl-methyl-amino]-6-[[(2R,8S)-2-fluoro-1,2,3,5,6,7-hexahydropyrrolizin-8-yl]methoxy]-1,3,5-triazin-2-yl]spiro[6H-thieno[3,4-b]thiophene-4,3′-azetidine]-3-carbonitrile], the pIC50 in test [1] was over 8.00; in test [2], over 8.00; in test [3] (setting [5]), over 8.00; in test [4] (GP2d, 3 h, Table 4), 7.00 to 8.00.

In the case of `CC(c1ccc(F)nc1N)N(C)c1nc(OC[C@@]23CCCN2C[C@H](F)C3)nc(N2CC3(CCc4sc(N)c(C#N)c43)C2)n1` (stereo partly drawn) [Compound 162, 2-amino-1′-[4-[1-(2-amino-6-fluoro-3-pyridyl)ethyl-methyl-amino]-6-[[(2R,8S)-2-fluoro-1,2,3,5,6,7-hexahydropyrrolizin-8-yl]methoxy]-1,3,5-triazin-2-yl]spiro[5,6-dihydrocyclopenta[b]thiophene-4,3′-azetidine]-3-carbonitrile], the pIC50 in test [1] is 7.00 to 8.00; in test [2], over 8.00; in test [3] (setting [5]), 7.00 to 8.00; in test [4] (GP2d, 3 h, Table 4) it was 6.00 to 7.00.

As to `CCN(c1nc(OC[C@@H]2CCCN2C)nc(N2CC3(C2)SCc2sc(N)c(C#N)c23)n1)[C@H](C)c1cccnc1N` [Compound 207, 2-amino-1′-[4-[[(1R)-1-(2-amino-3-pyridyl)ethyl]-ethyl-amino]-6-[[(2S)-1-methylpyrrolidin-2-yl]methoxy]-1,3,5-triazin-2-yl]spiro[6H-thieno[3,4-b]thiophene-4,3′-azetidine]-3-carbonitrile], the pIC50 in test [1] was over 8.00; in test [2] it was over 8.00; in test [3] (setting [5]), 7.00 to 8.00; in test [4] (GP2d, 3 h, Table 4), 7.00 to 8.00.

`N#Cc1c(N)sc2c1C1(CC2)CN(c2nc(OCC3(C#N)CC3)nc(OCC3(CN4CCOCC4)CC3)n2)C1` [Compound 38, 2-amino-1′-[4-[(1-cyanocyclopropyl)methoxy]-6-[[1-(morpholinomethyl)cyclopropyl]methoxy]-1,3,5-triazin-2-yl]spiro[5,6-dihydrocyclopenta[b]thiophene-4,3′-azetidine]-3-carbonitrile]: the pIC50 is 7.00 to 8.00 in test [1]; over 8.00 in test [2]; 6.00 to 7.00 in test [3] (setting [5]); 4.70 to 6.00 in test [4] (GP2d, 3 h, Table 4).

Turning to `C[C@@]1(O)CCCN(c2nc(OCC3(CN4CCOCC4)CC3)nc(N3CC4(C3)c3c(sc(N)c3C#N)CC4F)n2)C1` (stereo partly drawn) [Compound 61, 2-amino-5-fluoro-1′-[4-[(3R)-3-hydroxy-3-methyl-1-piperidyl]-6-[[1-(morpholinomethyl)cyclopropyl]methoxy]-1,3,5-triazin-2-yl]spiro[5,6-dihydrocyclopenta[b]thiophene-4,3′-azetidine]-3-carbonitrile], the pIC50 in test [1] is over 8.00; in test [2] it was 7.00 to 8.00; in test [3] (setting [5]), 6.00 to 7.00; in test [4] (GP2d, 3 h, Table 4), 7.00 to 8.00.

Consider `N#Cc1c(N)sc2c1C1(CN(c3nc(OCC4(CN5CCOCC5)CC4)nc(N4C[C@H]5CC[C@@H](C4)N5)n3)C1)SC2` [Compound 167, 1-(4-((1R,5S)-3,8-diazabicyclo[3.2.1]octan-3-yl)-6-((1-(morpholinomethyl)cyclopropyl)methoxy)-1,3,5-triazin-2-yl)-2′-amino-6′H-spiro[azetidine-3,4′-thieno[3,4-b]thiophene]-3′-carbonitrile], for which the pIC50 is over 8.00 in test [1]; 7.00 to 8.00 in test [2]; 4.70 to 6.00 in test [3] (setting [5]); over 8.00 in test [4] (GP2d, 3 h, Table 4).

For the molecule `CC(c1cccnc1N)N(C)c1nc(OC[C@@]23CCCN2C[C@H](F)C3)nc(N2CC3(C2)SCc2sc(N)c(C#N)c23)n1` (single isomer, unassigned) [Compound 120B, 2-amino-1′-[4-[[(1*)-1-(2-amino-3-pyridyl)ethyl]-methyl-amino]-6-[[(2R,8S)-2-fluoro-1,2,3,5,6,7-hexahydropyrrolizin-8-yl]methoxy]-1,3,5-triazin-2-yl]spiro[6H-thieno[3,4-b]thiophene-4,3′-azetidine]-3-carbonitrile], the pIC50 in test [1] was over 8.00; in test [2], over 8.00; in test [3] (Table 4, 3 hours), 7.00 to 8.00; in test [4] (Table 4, 3 hours), 7.00 to 8.00.

For `CN(Cc1nsnc1N)c1nc(OC[C@@]23CCCN2C[C@H](F)C3)nc(N2CC3(CCc4sc(N)c(C#N)c43)C2)n1` [Compound 166, 2-amino-1′-[4-[(4-amino-1,2,5-thiadiazol-3-yl)methyl-methyl-amino]-6-[[(2R,8S)-2-fluoro-1,2,3,5,6,7-hexahydropyrrolizin-8-yl]methoxy]-1,3,5-triazin-2-yl]spiro[5,6-dihydrocyclopenta[b]thiophene-4,3′-azetidine]-3-carbonitrile], the negative logarithm of the IC50 (pIC50) in test [1] was 7.00 to 8.00; in test [2], over 8.00; in test [3] (setting [5]), 7.00 to 8.00; in test [4] (GP2d, 3 h, Table 4), 6.00 to 7.00.

`CC(c1ccn[nH]1)N(C)c1nc(OC[C@@]23CCCN2C[C@H](F)C3)nc(N2CC3(CCc4sc(N)c(C#N)c43)C2)n1` (stereo partly drawn) [Compound 129, 2-amino-1′-[4-[methyl-[1-(1H-pyrazol-5-yl)ethyl]amino]-6-[[(2R,8S)-2-fluoro-1,2,3,5,6,7-hexahydropyrrolizin-8-yl]methoxy]-1,3,5-triazin-2-yl]spiro[5,6-dihydrocyclopenta[b]thiophene-4,3′-azetidine]-3-carbonitrile]: the pIC50 in test [1] was 6.00 to 7.00; in test [2], over 8.00; in test [3] (setting [5]) it was 4.70 to 6.00; in test [4] (GP2d, 3 h, Table 4) it was 4.70 to 6.00.

In the case of `CC(c1cccnc1N)N(CCO)c1nc(OC[C@@]23CCCN2C[C@H](F)C3)nc(N2CC3(CCc4sc(N)c(C#N)c43)C2)n1` (single isomer, unassigned) [Compound 122A, 2-amino-1′-[4-[[(1*)-1-(2-amino-3-pyridyl)ethyl]-(2-hydroxyethyl)amino]-6-[[(2R,8S)-2-fluoro-1,2,3,5,6,7-hexahydropyrrolizin-8-yl]methoxy]-1,3,5-triazin-2-yl]spiro[5,6-dihydrocyclopenta[b]thiophene-4,3′-azetidine]-3-carbonitrile], the pIC50 in test [1] is over 8.00; in test [2], over 8.00; in test [3] (setting [5]) it was 7.00 to 8.00; in test [4] (GP2d, 3 h, Table 4), over 8.00.

For `N#Cc1c(N)sc2c1C1(CC2)CN(c2nc(OC[C@@]34CCCN3C[C@H](F)C4)nc(N3CCC[C@@H](O)[C@@H](O)C3)n2)C1` [Compound 81, 2-amino-1′-[4-[(3S,4R)-3,4-dihydroxyazepan-1-yl]-6-[[(2R,8S)-2-fluoro-1,2,3,5,6,7-hexahydropyrrolizin-8-yl]methoxy]-1,3,5-triazin-2-yl]spiro[5,6-dihydrocyclopenta[b]thiophene-4,3′-azetidine]-3-carbonitrile; 2,2,2-trifluoroacetic acid], the pIC50 in test [1] is over 8.00; in test [2], over 8.00; in test [3] (setting [5]), 4.70 to 6.00; in test [4] (GP2d, 3 h, Table 4), 6.00 to 7.00.

Consider `N#Cc1c(N)sc2c1C1(CC2)CN(c2nc(OC[C@@]34CCCN3C[C@H](F)C4)nc(N(CCO)Cc3cc(F)cnc3N)n2)C1` [Compound 133, 2-amino-1′-[4-[(2-amino-5-fluoro-3-pyridyl)methyl-(2-hydroxyethyl)amino]-6-[[(2R,8S)-2-fluoro-1,2,3,5,6,7-hexahydropyrrolizin-8-yl]methoxy]-1,3,5-triazin-2-yl]spiro[5,6-dihydrocyclopenta[b]thiophene-4,3′-azetidine]-3-carbonitrile], for which the pIC50 in test [1] is over 8.00; in test [2], over 8.00; in test [3] (setting [5]), 7.00 to 8.00; in test [4] (GP2d, 3 h, Table 4) it was 6.00 to 7.00.
